# Article PMC5128747, “Biscogniauxone, a New Isopyrrolonaphthoquinone Compound from the Fungus Biscogniauxia mediterranea Isolated from Deep-Sea Sediments” (Marine Drugs, 2016)
# pIC50: −log10 of the molar value. “And” between values parts separate entries of the source, which are not always exact repeats. Equal values may be shown once. Read-outs that look alike come from different tables or passages of the source. Where a SMILES comes first, the peptide text is derived from it.
# Tests used:
# Trichophyton rubrum = assay: Antifungal growth inhibition, Trichophyton rubrum; type: cell-based; details: in the same concentration range (IC50 in the range of 100 μM)
# Procedure: (§1) The antimicrobial activities of compounds 1 and 2 against the bacteria Bacillus subtilis as well as the human pathogenic yeast Candida albicans (DSM 1386) were determined according to Ohlendorf et al.. The bioassays with the clinically relevant bacterial strains Staphylococcus epidermidis (DSM 20044), methicillin-resistant Staphylococcus aureus (MRSA) (DSM 18827), and the causative agent of acne, Propionibacterium acnes (DSM 1897^T), were performed as described by Silber et al.. The phytopathogenic fungus Septoria tritici and the dermatophytic fungus Trichophyton rubrum as well as the cytotoxic effect on the human hepatocellular liver carcinoma cell line HepG2 were tested according to Jansen et al.. Inhibition of the enzymes glycogen synthase kinase (GSK-3β), acetylcholinesterase (AchE), phosphodiesterase (PDE-4B2), and protein tyrosine phosphatase (PTP1B) was determined according to Baki et al., Ohlendorf et al., Schulz et al., and Silber et al., respectively. The concentration of the compounds used in the initial bioassays was 100 μM (antibiotic tests), 50 μM (cytotoxic tests), and 10 μM (enzymatic tests). […]
# Septoria tritici = assay: Antifungal growth inhibition, Septoria tritici; type: cell-based; details: in the same concentration range (IC50 in the range of 100 μM)
# Procedure: as §1
# [1] = target: acetylcholinesterase (AchE) (Homo sapiens, UniProt P22303); assay: Inhibition of acetylcholinesterase (AchE); type: biochemical
# Chain of acetylcholinesterase (AchE) (P22303 32-614): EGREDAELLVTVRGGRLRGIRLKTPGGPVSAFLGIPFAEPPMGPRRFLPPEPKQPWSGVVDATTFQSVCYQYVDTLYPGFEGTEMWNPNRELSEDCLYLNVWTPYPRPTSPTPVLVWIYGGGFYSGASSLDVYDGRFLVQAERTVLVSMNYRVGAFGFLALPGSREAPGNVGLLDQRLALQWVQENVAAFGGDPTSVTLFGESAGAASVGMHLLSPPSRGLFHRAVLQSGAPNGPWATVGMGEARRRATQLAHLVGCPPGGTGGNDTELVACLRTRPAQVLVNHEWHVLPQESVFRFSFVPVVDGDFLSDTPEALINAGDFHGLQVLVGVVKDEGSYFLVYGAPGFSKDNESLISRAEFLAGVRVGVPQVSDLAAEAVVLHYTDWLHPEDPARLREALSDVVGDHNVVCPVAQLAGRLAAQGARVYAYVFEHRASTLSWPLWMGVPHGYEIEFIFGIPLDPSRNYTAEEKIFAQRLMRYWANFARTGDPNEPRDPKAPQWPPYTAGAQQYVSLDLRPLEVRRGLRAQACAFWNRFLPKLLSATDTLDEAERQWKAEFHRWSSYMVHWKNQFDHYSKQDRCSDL
# Procedure: (§2) The phytopathogenic fungus Septoria tritici and the dermatophytic fungus Trichophyton rubrum as well as the cytotoxic effect on the human hepatocellular liver carcinoma cell line HepG2 were tested according to Jansen et al.. Inhibition of the enzymes glycogen synthase kinase (GSK-3β), acetylcholinesterase (AchE), phosphodiesterase (PDE-4B2), and protein tyrosine phosphatase (PTP1B) was determined according to Baki et al., Ohlendorf et al., Schulz et al., and Silber et al., respectively. The concentration of the compounds used in the initial bioassays was 100 μM (antibiotic tests), 50 μM (cytotoxic tests), and 10 μM (enzymatic tests).
# [2] = target: T1, glycogen synthase kinase (GSK-3β) (Homo sapiens, UniProt P49841); assay: Inhibition of glycogen synthase kinase (GSK-3β); type: biochemical; details: concentrations 0.1 μM to 50 μM analyzed twice in duplicates
# T1 sequence (P49841 whole entry): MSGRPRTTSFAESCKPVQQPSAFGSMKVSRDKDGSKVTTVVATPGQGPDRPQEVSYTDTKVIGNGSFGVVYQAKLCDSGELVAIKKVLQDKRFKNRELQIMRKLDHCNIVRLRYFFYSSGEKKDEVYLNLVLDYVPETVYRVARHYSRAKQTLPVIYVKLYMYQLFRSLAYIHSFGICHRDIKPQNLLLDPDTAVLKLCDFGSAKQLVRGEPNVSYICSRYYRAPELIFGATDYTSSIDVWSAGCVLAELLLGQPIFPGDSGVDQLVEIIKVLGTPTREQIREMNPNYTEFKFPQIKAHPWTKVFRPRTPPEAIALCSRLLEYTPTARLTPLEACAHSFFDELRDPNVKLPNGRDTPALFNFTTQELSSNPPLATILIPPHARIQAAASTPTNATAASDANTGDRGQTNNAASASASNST
# Procedure: as §2
# [3] = tested on: methicillin-resistant Staphylococcus aureus (MRSA) (DSM 18827); assay: Antibacterial growth inhibition, MRSA; type: cell-based; details: very weak inhibition, in the range of
# [4] = tested on: Staphylococcus epidermidis (DSM 20044); assay: Antibacterial growth inhibition, Staphylococcus epidermidis; type: cell-based; details: DSM20044, very weak inhibition, in the range of
# Procedure: as §1
# [5] = target: T1, glycogen synthase kinase (GSK-3β); design: method as in PMID 24045329; details: read-out: IC50, inhibition of GSK-3β; cited from earlier work
compound,measurement,setting,value
"COc1cc(O)c2c(c1C)C[C@H](C)OC2=O [Compound 2, 6-methoxy-5-methyl mellein]",inhibition of Trichophyton rubrum,Trichophyton rubrum,weakly inhibited
same,inhibition of Septoria tritici,Septoria tritici,weakly inhibited
"CC(C)C[C@@H]1NC(=O)[C@H](CC(C)C)NC(=O)[C@H](C(C)C)NC(=O)[C@H](CC(C)C)NC(=O)[C@H](Cc2ccccc2)NC1=O [Compound 3, cyclo-(L-Phe-L-Leu-L-Val-L-Leu-L-Leu)] (cyclo(FLVLL))","minimal inhibition concentration (MIC), inhibitory effect on AchE",[1],5.87 µM
"O=C1c2c[nH]cc2C(=O)c2c(O)cc(O)cc21 [Compound 1, biscogniauxone]",pIC50,[2],5.09 and 5.10
same,pIC50,[3],~4.00
same,pIC50,[4],~4.00
bhimamycin H,pIC50,[5],4.74
